Literature values as cited in patent publication US8569328B1, “Compositions and methods comprising tilidine or related compounds and dextromethorphan” (Antecip Bioventures II LLC, priority 2011, dated 2013).

Key:
[1] = three large multicenter randomized studies; dextromethorphan added to morphine
[2] = target: cytochrome P450 isozyme CYP2D6 (Homo sapiens, UniProt P10635); conditions: in vitro
Chain of cytochrome P450 isozyme CYP2D6 (P10635 whole entry): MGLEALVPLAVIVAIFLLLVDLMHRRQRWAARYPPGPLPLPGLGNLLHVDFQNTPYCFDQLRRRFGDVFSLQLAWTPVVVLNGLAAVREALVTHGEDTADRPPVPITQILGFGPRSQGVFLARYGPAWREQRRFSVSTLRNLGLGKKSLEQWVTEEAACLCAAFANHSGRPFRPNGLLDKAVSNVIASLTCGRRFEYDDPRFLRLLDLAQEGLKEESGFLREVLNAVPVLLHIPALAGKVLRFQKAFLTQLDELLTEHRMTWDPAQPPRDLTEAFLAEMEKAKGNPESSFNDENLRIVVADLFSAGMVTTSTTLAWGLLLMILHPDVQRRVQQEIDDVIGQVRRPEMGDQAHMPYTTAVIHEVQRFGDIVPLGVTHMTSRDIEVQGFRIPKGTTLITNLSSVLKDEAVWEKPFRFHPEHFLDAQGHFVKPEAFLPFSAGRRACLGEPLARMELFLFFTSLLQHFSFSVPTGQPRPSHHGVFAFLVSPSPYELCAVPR

Compound	benefit from the addition of dextromethorphan to morphine (enhancement of opioid analgesia) [1]	inhibition of cytochrome P450 isozymes including CYP2D6 [2]
COc1ccc2c(c1)[C@]13CCCC[C@@H]1[C@H](C2)N(C)CC3 [dextromethorphan]	failed to show any benefit	–
CCOC(=O)C1(c2ccccc2)CCC=CC1N(C)C (stereo not drawn) [tilidine]	–	inhibit
nortilidine	–	inhibit
